The values that follow come from US5112382A, “Halopropargyl compounds, compositions, uses and processes of preparation” (Rohm and Haas Company, priority 1990, dated 1992).

Converted amounts (≈) assume the structure as drawn. Like-named read-outs stand apart in the source and are kept apart here.

One experiment concerns Pseudomonas fluorescens. Description: MIC, broth two-fold serial dilution test, Psfl. The settings on record: read-out: Minimum Inhibitory Concentration (MIC). Type of experiment: cell-based. On the procedure:
(§1) A minimum inhibitory concentration (MIC) value is obtained using a broth, two-fold serial dilution test performed as follows: […] A volume of the stock solution is dispensed into culture media to give an initial starting test concentration of 500 ppm compound. The test is carried out by adding and equal volume of broth to each vessel in the dilution series, except for the first vessel. The first vessel contains twice the volume of broth plus the initial concentration of test compound. One half of the broth from the first vessel is transferred to the second vessel. After being mixed, one half the resulting volume is removed from the second vessel and transferred to the third vessel. The entire cycle is repeated sufficiently to give a series of concentrations amounting to 500, 250, 125, 63, 31, 16, 8, and 4 ppm (or 100, 50, 25, 12.5, 6.2, 3.1, 1.6, and 0.8), respectively. Each vessel is then inoculated with a cell suspension of the appropriate test organism. Bacteria are grown in both and fungi on agar slats for a time and at a temperature appropriate to the species being tested. At the end of the growth period, the broth is vortexed to disperse the cells. In the case of fungi, the pores are harvested by pipetting water onto the slant and dislodging the spores with a sterile loop. The cell/spore suspension is standardized by controlling incubation time, temperature, and the volume of the diluent. The suspension is then used to inoculate the vessels containing the broth compound. The vessels are then incubated at the appropriate temperature. After the incubation, the vessels are examined for growth/no growth. The minimum inhibitory concentration (MIC) is defined as the lowest concentration of compound that results in complete inhibition of growth of the test organism.

A further experiment has as its system Pseudomonas aerugenosa. Description: MIC, broth two-fold serial dilution test, Psae. Format: cell-based. The settings on record: read-out: Minimum Inhibitory Concentration (MIC). On the procedure: as §1
Another experiment relates to Escherichia coli. Description: MIC, broth two-fold serial dilution test, Ecol. Format: cell-based. The settings on record: read-out: Minimum Inhibitory Concentration (MIC). How it is done:
as §1

The subject of another experiment is Staphylococcus aureus. Description: MIC, broth two-fold serial dilution test, Saur. Type of experiment: cell-based. The settings on record: read-out: Minimum Inhibitory Concentration (MIC). How it is done:
as §1

In another experiment the test system is Aspergillus niger. In words: MIC, broth two-fold serial dilution test, Anig. The settings on record: read-out: Minimum Inhibitory Concentration (MIC). Format: cell-based. On the procedure: as §1
For the next experiment, the system named is Aureobasidium pullulans. Description: MIC, broth two-fold serial dilution test, Apul. Particulars: read-out: Minimum Inhibitory Concentration (MIC). Type of experiment: cell-based. How it is done: as §1
The next experiment concerns Cochliobolus sativus. In words: In-vitro plant fungicide test, HEL. Format: cell-based. The settings on record: Bipolaris sorokiniana, read-out: % Control; for inhibition of growth at 25 ppm: rate 25 PPM; for inhibition of growth at 50 ppm: rate 50 PPM.
A further experiment has as its system Phytophthora capsici. Description: In-vitro plant fungicide test, PHY. Type of experiment: cell-based. Particulars: read-out: % Control; for inhibition of growth at 25 ppm: rate 25 PPM; for inhibition of growth at 50 ppm: rate 50 PPM.
Experiment [1] has as its system Piricularia oryzae. In words: microbe, parasite or virus in culture. Particulars: read-out: % Control. Type of experiment: cell-based.
The test system of the next experiment is Pythium ultimum. Description: In-vitro plant fungicide test, PYU. Format: cell-based. Particulars: Globisporangium ultimum, read-out: % Control; for inhibition of growth at 25 ppm: rate 25 PPM; for inhibition of growth at 50 ppm: rate 50 PPM.
The next experiment deals with Rhizoctonia solani. In words: In-vitro plant fungicide test, RHI. Format: cell-based. Particulars: read-out: % Control; for inhibition of growth at 25 ppm: rate 25 PPM; for inhibition of growth at 50 ppm: rate 50 PPM.
The test system of another experiment is Septoria nodorum. In words: In-vitro plant fungicide test, SEP. Particulars: Parastagonospora nodorum, read-out: % Control; for inhibition of growth at 25 ppm: rate 25 PPM; for inhibition of growth at 50 ppm: rate 50 PPM. Type of experiment: cell-based.
Another experiment has as its system Xanthomonas campestris. Description: In-vitro plant fungicide test, XAN. Format: cell-based. The settings on record: read-out: % Control; for inhibition of growth at 50 ppm: rate 50 PPM.
Experiment [2] deals with Pseudoperonospora cubensis. Description: whole plant or invertebrate. Type of experiment: in vivo. The settings on record: in Cucumis sativus, 168 h.
Experiment [3] deals with Piricularia oryzae. In words: whole plant or invertebrate. Type of experiment: in vivo. The settings on record: Pyricularia oryzae, 192 h, read-out: % Control.
The test system of experiment [4] is Septoria glume blotch of wheat. Description: whole plant or invertebrate. Type of experiment: in vivo. The settings on record: Triticum aestivum.
The next experiment deals with Phytophthora infestans. Description: whole plant or invertebrate. Format: in vivo. Particulars: in Solanum lycopersicum, 96 h, read-out: % Control.
Experiment [5] deals with Puccinia recondita (f. sp. tritici Races PKB and PLD). Description: whole plant or invertebrate. Format: in vivo. Particulars: 240 h.
The test system of experiment [6] is Erysiphe graminis (f. sp. tritici). In words: whole plant or invertebrate. Format: in vivo. Particulars: Blumeria graminis.
The next experiment concerns Botrytis cinerea. Description: In-vitro plant fungicide test, BOC. Particulars: read-out: % Control.
In the next experiment the test system is Fusarium roseum. Description: microbe, parasite or virus in culture. The settings on record: Fusarium sambucinum, read-out: % Control.

Regarding `COC(=O)N(CC#CBr)N=Cc1ccc(F)cc1` [Compound 7, N'-Methoxycarbonyl-N'-3-bromopropargyl 4-fluorobenzaldehyde hydrazone], the MIC in the experiment on Pseudomonas fluorescens amounted to 125 µg/mL (≈ 399 µM); in the experiment on Pseudomonas aerugenosa it was 31 µg/mL (≈ 99 µM); in the experiment on Escherichia coli, 125 µg/mL (≈ 399 µM); in the experiment on Staphylococcus aureus, 63 µg/mL (≈ 201 µM); in the experiment on Aspergillus niger, 31 µg/mL (≈ 99 µM); in the experiment with Aureobasidium pullulans, 31 µg/mL (≈ 99 µM). Further, the inhibition of growth at 25 ppm in the experiment on Cochliobolus sativus was 0%; with Phytophthora capsici, 0%; in the experiment with Piricularia oryzae [1], 0%; in the experiment on Pythium ultimum it was 0%; in the experiment on Rhizoctonia solani, 0%; in the experiment with Septoria nodorum, 100%. For the same compound, the inhibition of growth at 25 ppm in the experiment on Xanthomonas campestris, with Botrytis cinerea and with Fusarium roseum was 0% in each case. Besides, the inhibition of growth at 50 ppm in the experiment on Cochliobolus sativus was 0%; in the experiment on Phytophthora capsici it was 90%; in the experiment on Piricularia oryzae [1] it was 90%; in the experiment on Pythium ultimum it was 100%; with Rhizoctonia solani, 0%; in the experiment with Septoria nodorum it was 0%. Moreover, the inhibition of growth at 50 ppm in the experiment with Xanthomonas campestris (XAN), in the experiment on Botrytis cinerea and with Fusarium roseum was 0% in each case. For the same compound, the pest or weed control at 200 ppm (in experiment [2]; in the experiment on Piricularia oryzae [3]; in experiment [4]; in the experiment on Phytophthora infestans; in [5]; in [6]) was 0% in each case.

As to `COC(=O)N(CC#CI)N=Cc1ccc(F)cc1` [Compound 10, N'-Methoxycarbonyl-N'-3-iodopropargyl 4-fluorobenzaldehyde hydrazone], the MIC was above 500 µg/mL in the experiment on Pseudomonas fluorescens; above 500 µg/mL in the experiment with Pseudomonas aerugenosa; above 500 µg/mL in the experiment with Escherichia coli; below 4 µg/mL in the experiment with Staphylococcus aureus; below 4 µg/mL with Aspergillus niger; below 4 µg/mL in the experiment with Aureobasidium pullulans. Moreover, the inhibition of growth at 50 ppm in the experiment with Cochliobolus sativus, in the experiment with Phytophthora capsici, with Piricularia oryzae [1], with Pythium ultimum, in the experiment with Rhizoctonia solani and with Septoria nodorum was 100% each time. In addition, the figures for the inhibition of growth at 50 ppm in the experiment on Xanthomonas campestris (XAN), in the experiment with Botrytis cinerea and with Fusarium roseum were 0%, 0% and 100%, respectively. Besides, the pest or weed control at 200 ppm in experiment [2] was found to be 50%; in the experiment with Piricularia oryzae [3], 50%; in experiment [4] it was 0%; in the experiment on Phytophthora infestans, 0%; in [5], 0%; in experiment [6] it was 50%.

Turning to `CCOC(=O)N(CC#CI)N=Cc1ccc(Cl)c(Cl)c1` [Compound 13, N'-Ethoxycarbonyl-N'-3-iodopropargyl 3,4-dichlorobenzaldehyde hydrazone], the MIC was above 100 µg/mL in the experiment on Pseudomonas fluorescens; above 100 µg/mL in the experiment on Pseudomonas aerugenosa; above 100 µg/mL in the experiment with Escherichia coli; above 100 µg/mL in the experiment on Staphylococcus aureus; 100 µg/mL (≈ 235 µM) in the experiment on Aspergillus niger; above 100 µg/mL with Aureobasidium pullulans. In addition, the inhibition of growth at 25 ppm with Cochliobolus sativus is 50%; in the experiment with Phytophthora capsici, 0%; in the experiment with Piricularia oryzae [1], 100%; in the experiment with Pythium ultimum, 0%; with Rhizoctonia solani it was 90%; in the experiment with Septoria nodorum it was 50%. Further, the inhibition of growth at 25 ppm with Xanthomonas campestris (XAN, rate 25 PPM) was 0%; in the experiment on Botrytis cinerea, 0%; in the experiment with Fusarium roseum it was 75%. Further, the pest or weed control at 200 ppm in experiment [2] is 85%; in the experiment on Piricularia oryzae [3], 0%; in [4], 0%; in the experiment on Phytophthora infestans it was 0%; in experiment [5], 50%; in [6], 50%.

In the case of `CCOC(=O)N(CC#CBr)N=Cc1ccc(Cl)c(Cl)c1` [Compound 14, N'-Ethoxycarbonyl-N'-3-bromopropargyl 3,4-dichlorobenzaldehyde hydrazone], the MIC in the experiment on Pseudomonas fluorescens, in the experiment on Pseudomonas aerugenosa, in the experiment on Escherichia coli, with Staphylococcus aureus, in the experiment with Aspergillus niger and with Aureobasidium pullulans was above 100 µg/mL each time. The inhibition of growth at 25 ppm with Cochliobolus sativus is 0%; in the experiment on Phytophthora capsici, 0%; in the experiment on Piricularia oryzae [1], 0%; in the experiment with Pythium ultimum it was 0%; with Rhizoctonia solani, 50%; in the experiment on Septoria nodorum, 0%. Moreover, the inhibition of growth at 25 ppm with Xanthomonas campestris (XAN, rate 25 PPM) turned out to be 0%; in the experiment with Botrytis cinerea, 0%; in the experiment with Fusarium roseum it was 0%. Also, the pest or weed control at 200 ppm in experiment [2] is 0%; in the experiment on Piricularia oryzae [3], 0%; in [4], 0%; with Phytophthora infestans, 0%; in experiment [5], 0%; in [6], 85%.

With `COC(=O)N(CC#CI)N=Cc1cc(Cl)cc(Cl)c1` [Compound 15, N'-Methoxycarbonyl-N'-3-iodopropargyl 3,5-dichlorobenzaldehyde hydrazone], the MIC in the experiment with Pseudomonas fluorescens, in the experiment with Pseudomonas aerugenosa, in the experiment on Escherichia coli, with Staphylococcus aureus, with Aspergillus niger and with Aureobasidium pullulans was above 100 µg/mL each time. For the same compound, the inhibition of growth at 25 ppm in the experiment with Cochliobolus sativus is 50%; in the experiment with Phytophthora capsici it was 0%; in the experiment with Piricularia oryzae [1], 100%; with Pythium ultimum, 0%; with Rhizoctonia solani, 75%; in the experiment on Septoria nodorum it was 0%. In addition, the inhibition of growth at 25 ppm in the experiment with Xanthomonas campestris (XAN, rate 25 PPM) amounted to 0%; with Botrytis cinerea, 0%; in the experiment on Fusarium roseum, 75%. The pest or weed control at 200 ppm (in experiment [2]; with Piricularia oryzae [3]; in [4]; with Phytophthora infestans; in experiment [5]; in [6]) was 0% in each case.

For `COC(=O)N(CC#CBr)N=Cc1cc(Cl)cc(Cl)c1` [Compound 16, N'-Methoxycarbonyl-N'-3-bromopropargyl 3,5-dichlorobenzaldehyde hydrazone], the MIC in the experiment with Pseudomonas fluorescens, with Pseudomonas aerugenosa, in the experiment on Escherichia coli, in the experiment with Staphylococcus aureus, with Aspergillus niger and in the experiment on Aureobasidium pullulans was above 100 µg/mL throughout. For the same compound, the inhibition of growth at 25 ppm in the experiment on Cochliobolus sativus, with Phytophthora capsici, in the experiment with Piricularia oryzae [1], with Pythium ultimum, in the experiment with Rhizoctonia solani and with Septoria nodorum was 0% each time. Further, the inhibition of growth at 25 ppm in the experiment on Xanthomonas campestris (XAN, rate 25 PPM) amounted to 0%; with Botrytis cinerea, 0%; in the experiment with Fusarium roseum, 0%. The pest or weed control at 200 ppm (in experiment [2]; with Piricularia oryzae [3]; in experiment [4]; with Phytophthora infestans; in experiment [5]; in experiment [6]) was 0% throughout.
